Test results reported in US8168651B2, “Protein kinase modulators” (Cylene Pharmaceuticals, Inc., priority 2008, dated 2012).

How the values were obtained:
Experiment in all cases: Standardized radiometric kinase assays, percentage of activity at 0.5 μM;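 further: Read-out is ³³P-labelled substrate protein phosphorylated by each kinase, captured on filters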
[1] = target: each individual kinase of the panel (Mus musculus, UniProt P47809)
[2] = target: each individual kinase of the panel (Homo sapiens, UniProt P49840)
each individual kinase of the panel (Homo sapiens, UniProt P49840), sequence (P49840 2-483 limits assumed): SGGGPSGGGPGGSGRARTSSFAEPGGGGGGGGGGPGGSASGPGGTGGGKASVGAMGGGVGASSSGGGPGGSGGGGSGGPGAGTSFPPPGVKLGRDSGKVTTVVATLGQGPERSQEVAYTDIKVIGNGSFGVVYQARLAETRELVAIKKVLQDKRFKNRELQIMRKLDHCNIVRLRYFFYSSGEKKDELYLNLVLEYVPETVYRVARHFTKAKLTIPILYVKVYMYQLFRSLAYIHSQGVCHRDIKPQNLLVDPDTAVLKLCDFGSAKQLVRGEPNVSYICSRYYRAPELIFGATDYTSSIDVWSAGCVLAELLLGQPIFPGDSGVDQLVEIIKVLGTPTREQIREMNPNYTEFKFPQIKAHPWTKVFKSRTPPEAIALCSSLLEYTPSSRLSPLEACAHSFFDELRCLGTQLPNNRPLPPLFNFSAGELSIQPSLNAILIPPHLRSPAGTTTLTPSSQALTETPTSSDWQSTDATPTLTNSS

[3] = target: each individual kinase of the panel (Homo sapiens, UniProt P22607)
each individual kinase of the panel (Homo sapiens, UniProt P22607), sequence (P22607 23-806 limits assumed): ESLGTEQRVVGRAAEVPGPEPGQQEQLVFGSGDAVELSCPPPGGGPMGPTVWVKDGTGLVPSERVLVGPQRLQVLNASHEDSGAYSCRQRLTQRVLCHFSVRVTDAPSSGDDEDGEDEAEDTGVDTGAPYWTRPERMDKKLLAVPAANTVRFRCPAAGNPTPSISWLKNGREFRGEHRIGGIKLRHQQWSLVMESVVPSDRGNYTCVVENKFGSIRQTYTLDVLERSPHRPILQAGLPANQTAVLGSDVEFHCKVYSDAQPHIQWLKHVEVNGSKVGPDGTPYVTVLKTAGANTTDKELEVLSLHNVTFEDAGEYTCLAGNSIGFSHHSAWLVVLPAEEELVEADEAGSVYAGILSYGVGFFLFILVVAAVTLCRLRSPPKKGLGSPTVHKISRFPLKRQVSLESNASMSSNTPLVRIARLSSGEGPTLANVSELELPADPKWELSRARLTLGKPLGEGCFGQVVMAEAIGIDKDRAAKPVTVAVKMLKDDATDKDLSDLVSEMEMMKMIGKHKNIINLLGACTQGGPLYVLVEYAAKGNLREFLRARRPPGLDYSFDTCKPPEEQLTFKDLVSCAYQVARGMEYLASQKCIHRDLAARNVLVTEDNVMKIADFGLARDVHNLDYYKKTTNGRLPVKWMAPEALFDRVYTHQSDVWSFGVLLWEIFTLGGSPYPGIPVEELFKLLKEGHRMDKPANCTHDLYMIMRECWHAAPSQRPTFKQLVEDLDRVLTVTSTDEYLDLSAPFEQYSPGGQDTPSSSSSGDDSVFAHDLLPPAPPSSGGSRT

[4] = target: each individual kinase of the panel (Homo sapiens, UniProt P53779)
[5] = target: each individual kinase of the panel (Homo sapiens, UniProt P52333)
[6] = target: each individual kinase of the panel (Homo sapiens, UniProt P10721, D816V)
each individual kinase of the panel (Homo sapiens, UniProt P10721, D816V), sequence (P10721 26-976 D816V limits assumed): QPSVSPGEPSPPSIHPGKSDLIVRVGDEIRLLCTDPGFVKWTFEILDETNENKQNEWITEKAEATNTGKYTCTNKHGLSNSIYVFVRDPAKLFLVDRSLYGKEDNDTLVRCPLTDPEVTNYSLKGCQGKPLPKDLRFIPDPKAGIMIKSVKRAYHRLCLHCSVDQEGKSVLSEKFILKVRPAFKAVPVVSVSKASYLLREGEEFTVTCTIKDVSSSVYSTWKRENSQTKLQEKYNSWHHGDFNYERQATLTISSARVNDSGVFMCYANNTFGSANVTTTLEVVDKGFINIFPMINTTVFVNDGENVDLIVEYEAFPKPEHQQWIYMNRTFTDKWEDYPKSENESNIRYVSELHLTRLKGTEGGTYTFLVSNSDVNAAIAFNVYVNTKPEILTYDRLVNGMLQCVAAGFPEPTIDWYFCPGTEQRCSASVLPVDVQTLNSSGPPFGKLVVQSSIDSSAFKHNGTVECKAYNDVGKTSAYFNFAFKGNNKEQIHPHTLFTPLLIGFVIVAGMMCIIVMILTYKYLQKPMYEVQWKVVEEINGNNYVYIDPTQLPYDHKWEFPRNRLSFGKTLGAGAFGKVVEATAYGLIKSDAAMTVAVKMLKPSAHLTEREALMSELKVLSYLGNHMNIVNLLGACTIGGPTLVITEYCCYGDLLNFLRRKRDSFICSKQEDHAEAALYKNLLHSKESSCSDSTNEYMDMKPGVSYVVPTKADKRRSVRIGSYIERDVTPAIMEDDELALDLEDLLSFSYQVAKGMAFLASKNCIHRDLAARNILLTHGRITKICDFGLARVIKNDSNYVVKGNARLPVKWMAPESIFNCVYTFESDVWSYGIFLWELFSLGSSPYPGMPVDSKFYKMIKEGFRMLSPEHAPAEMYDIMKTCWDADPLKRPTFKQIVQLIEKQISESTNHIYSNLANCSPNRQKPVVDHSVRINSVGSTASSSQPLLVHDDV

[7] = target: each individual kinase of the panel (Homo sapiens, UniProt P45984)
[8] = target: each individual kinase of the panel (Homo sapiens, UniProt P53667)
[9] = target: each individual kinase of the panel (Homo sapiens, UniProt P54764)
each individual kinase of the panel (Homo sapiens, UniProt P54764), sequence (P54764 20-986 limits assumed): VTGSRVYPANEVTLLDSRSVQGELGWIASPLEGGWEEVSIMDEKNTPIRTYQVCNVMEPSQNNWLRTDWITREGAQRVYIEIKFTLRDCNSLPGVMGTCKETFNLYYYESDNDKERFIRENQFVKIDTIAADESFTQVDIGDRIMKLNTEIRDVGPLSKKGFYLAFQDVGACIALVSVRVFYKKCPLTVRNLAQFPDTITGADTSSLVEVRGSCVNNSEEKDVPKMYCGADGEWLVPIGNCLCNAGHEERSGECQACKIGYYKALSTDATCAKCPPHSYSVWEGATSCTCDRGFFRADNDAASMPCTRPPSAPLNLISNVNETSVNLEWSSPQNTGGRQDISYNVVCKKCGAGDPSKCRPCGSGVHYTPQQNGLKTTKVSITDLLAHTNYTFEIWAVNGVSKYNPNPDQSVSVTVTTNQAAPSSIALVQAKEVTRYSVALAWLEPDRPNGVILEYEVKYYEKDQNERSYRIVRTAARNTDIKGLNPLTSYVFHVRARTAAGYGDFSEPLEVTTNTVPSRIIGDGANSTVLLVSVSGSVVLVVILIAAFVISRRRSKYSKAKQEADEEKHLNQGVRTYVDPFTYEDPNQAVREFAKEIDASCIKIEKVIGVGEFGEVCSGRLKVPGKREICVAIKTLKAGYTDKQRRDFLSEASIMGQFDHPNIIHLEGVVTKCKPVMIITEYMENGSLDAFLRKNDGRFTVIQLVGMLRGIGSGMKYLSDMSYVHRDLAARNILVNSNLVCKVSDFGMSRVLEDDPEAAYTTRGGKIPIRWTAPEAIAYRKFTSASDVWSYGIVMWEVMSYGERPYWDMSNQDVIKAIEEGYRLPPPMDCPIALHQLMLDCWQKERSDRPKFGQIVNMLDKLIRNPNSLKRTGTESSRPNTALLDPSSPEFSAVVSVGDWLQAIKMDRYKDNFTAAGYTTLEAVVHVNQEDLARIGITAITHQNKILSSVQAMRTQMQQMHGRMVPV

[10] = target: each individual kinase of the panel (Homo sapiens, UniProt Q08881)
[11] = target: each individual kinase of the panel (Homo sapiens, UniProt Q13188)
[12] = target: each individual kinase of the panel (Homo sapiens, UniProt P42685)
[13] = target: each individual kinase of the panel (Homo sapiens, UniProt P21802, N549H)
each individual kinase of the panel (Homo sapiens, UniProt P21802, N549H), sequence (P21802 22-821 N549H limits assumed): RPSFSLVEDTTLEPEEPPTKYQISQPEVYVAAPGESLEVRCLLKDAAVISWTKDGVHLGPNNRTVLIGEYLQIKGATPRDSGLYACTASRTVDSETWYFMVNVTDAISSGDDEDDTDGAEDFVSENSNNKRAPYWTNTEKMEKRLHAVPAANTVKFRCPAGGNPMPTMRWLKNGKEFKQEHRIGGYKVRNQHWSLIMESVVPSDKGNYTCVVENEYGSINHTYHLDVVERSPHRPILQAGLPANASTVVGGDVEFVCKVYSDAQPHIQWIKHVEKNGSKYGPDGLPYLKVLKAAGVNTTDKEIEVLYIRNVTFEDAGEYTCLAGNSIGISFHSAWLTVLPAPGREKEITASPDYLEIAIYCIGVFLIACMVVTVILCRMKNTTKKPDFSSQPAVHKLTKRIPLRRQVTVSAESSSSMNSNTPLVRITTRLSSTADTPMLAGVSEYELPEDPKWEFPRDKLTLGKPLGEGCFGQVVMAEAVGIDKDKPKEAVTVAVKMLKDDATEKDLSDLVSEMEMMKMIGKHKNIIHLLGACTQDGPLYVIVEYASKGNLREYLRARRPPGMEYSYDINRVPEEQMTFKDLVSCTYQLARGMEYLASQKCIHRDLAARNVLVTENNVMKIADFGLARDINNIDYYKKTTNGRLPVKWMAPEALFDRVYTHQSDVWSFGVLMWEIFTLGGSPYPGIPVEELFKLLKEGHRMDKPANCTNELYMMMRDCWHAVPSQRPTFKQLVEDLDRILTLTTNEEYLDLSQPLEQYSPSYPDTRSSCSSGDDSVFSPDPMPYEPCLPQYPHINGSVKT

[14] = target: each individual kinase of the panel (Homo sapiens, UniProt Q9P0L2)
[15] = target: each individual kinase of the panel (Homo sapiens, UniProt Q15139)
[16] = target: each individual kinase of the panel (Homo sapiens, UniProt P52564)
[17] = target: each individual kinase of the panel (Homo sapiens, UniProt P10721, V654A)
each individual kinase of the panel (Homo sapiens, UniProt P10721, V654A), sequence (P10721 26-976 V654A limits assumed): as the sequence (P10721 26-976 D816V limits assumed) above, with V629A, V791D counted along it

[18] = target: each individual kinase of the panel (Homo sapiens, UniProt P45983)
[19] = target: each individual kinase of the panel (Homo sapiens, UniProt P48730)
[20] = target: each individual kinase of the panel (Homo sapiens, UniProt O43353)
[21] = target: each individual kinase of the panel (Homo sapiens, UniProt P14616)
[22] = target: each individual kinase of the panel (Homo sapiens, UniProt Q00535)
[23] = target: each individual kinase of the panel (Homo sapiens, UniProt O96017, R145W)
[24] = target: each individual kinase of the panel (Homo sapiens, UniProt Q9P286)
[25] = target: each individual kinase of the panel (Homo sapiens, UniProt P29323)
[26] = target: each individual kinase of the panel (Homo sapiens, UniProt Q9H2G2)
[27] = target: each individual kinase of the panel (Homo sapiens, UniProt Q12851)
[28] = target: each individual kinase of the panel (Homo sapiens, UniProt O14920)
[29] = target: each individual kinase of the panel (Homo sapiens, UniProt Q9H2K8)
[30] = target: each individual kinase of the panel (Homo sapiens, UniProt P51617)
[31] = target: each individual kinase of the panel (Homo sapiens, UniProt Q15759)

each individual kinase of the panel (Mus musculus, UniProt P47809), sequence (P47809 2-397 limits assumed): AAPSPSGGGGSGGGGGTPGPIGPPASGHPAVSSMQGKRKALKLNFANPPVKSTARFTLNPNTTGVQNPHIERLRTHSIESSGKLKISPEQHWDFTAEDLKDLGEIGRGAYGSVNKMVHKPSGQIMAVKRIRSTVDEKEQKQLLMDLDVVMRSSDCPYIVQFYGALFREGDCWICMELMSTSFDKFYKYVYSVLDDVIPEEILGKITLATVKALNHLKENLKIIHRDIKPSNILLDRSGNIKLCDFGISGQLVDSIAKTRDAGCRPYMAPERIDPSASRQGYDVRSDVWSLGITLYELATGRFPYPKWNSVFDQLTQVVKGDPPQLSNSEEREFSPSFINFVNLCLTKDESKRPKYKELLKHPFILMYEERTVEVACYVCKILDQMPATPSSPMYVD

MKK4(m) percentage of activity [1]: −2%
GSK3A percentage of activity [2]: 51%
FGFR3 percentage of activity [3]: −2%
JNK3 percentage of activity [4]: −3%
JAK3 percentage of activity [5]: 8%
cKit(D816V) percentage of activity [6]: 2%
JNK2A2 percentage of activity [7]: −7%
LIMK1 percentage of activity [8]: 3%
EPHA4 percentage of activity [9]: −3%
ITK;Itk(h) percentage of activity [10]: 0%
MST2 percentage of activity [11]: −6%
FRK percentage of activity [12]: 3%
FGFR2 (N549H) percentage of activity [13]: 4%
MARK1 percentage of activity [14]: 0%
PRKCM percentage of activity [15]: −4%
MEK6 percentage of activity [16]: 6%
cKit(V654A) percentage of activity [17]: 8%
JNK1A1 percentage of activity [18]: −9%
CK1 delta percentage of activity [19]: −4%
RIPK2 percentage of activity [20]: 2%
INSRR percentage of activity [21]: −21%
CDK5/p25 percentage of activity [22]: 4%
CDK5/p35 percentage of activity [22]: −7%
CHK2(R145W) (h) percentage of activity [23]: 0%
PAK5 percentage of activity [24]: −8%
EPHB2 percentage of activity [25]: 13%
SLK percentage of activity [26]: −15%
GCK percentage of activity [27]: 1%
IKK beta percentage of activity [28]: 5%
TAO3 percentage of activity [29]: 22%
IRAK1 percentage of activity [30]: 4%
p38-beta percentage of activity [31]: 5%
Structure (SMILES): C#Cc1cccc(Nc2nc3cc(C(=O)O)ccc3c3cncnc23)c1 [drawing 1135]
